Measured values: ChEMBL document CHEMBL2010759, “Scabronine M, a novel inhibitor of NGF-induced neurite outgrowth from PC12 cells from the fungus Sarcodon scabrosus” (Bioorg Med Chem Lett, 2012)
The source made the active and inactive calls. The rule behind the calls is not given here.

How the values were obtained:
PC-12 [1] = experiment: Inhibition of NGF-mediated neurite outgrowth in rat PC12 cells after 24 hrs by light microscopy; assay type: functional, cell-based
PC-12 [2] = experiment: Increase of NGF-mediated neurite outgrowth in rat PC12 cells after 24 hrs by light microscopy; assay type: functional, cell-based
PC-12 [3] = experiment: Increase of NGF-mediated neurite outgrowth in rat PC12 cells at 1 uM after 24 hrs by light microscopy (reference value: 21.06 +/- 1.27 %); assay type: functional
[4] = biological target: T1, Mitogen-activated protein kinase 1 and 3 (ERK2 and ERK1) (Rattus norvegicus) (UniProt P63086+P21708); experiment: Inhibition of NGF-induced ERK1/2 phosphorylation in rat PC12 cells at 1 uM after 15 mins by Western blotting analysis relative to beta-actin level (reference value: 0.275 +/- 0.005); assay type: cell-based; settings: PC-12
[5] = biological target: T1, Mitogen-activated protein kinase 1 and 3 (ERK2 and ERK1) (Rattus norvegicus); experiment: Inhibition of NGF-induced ERK1/2 phosphorylation in rat PC12 cells at 10 uM after 15 mins by Western blotting analysis relative to beta-actin level (reference value: 0.275 +/- 0.005); assay type: cell-based; settings: PC-12
[6] = biological target: High affinity nerve growth factor receptor (Rattus norvegicus) (UniProt P35739); experiment: Inhibition of NGF-induced TrkA receptor phosphorylation in rat PC12 cells after 15 mins by ELISA relative to control; assay type: cell-based; settings: PC-12
[7] = biological target: T1, Mitogen-activated protein kinase 1 and 3 (ERK2 and ERK1) (Rattus norvegicus); experiment: Inhibition of NGF-induced ERK1/2 phosphorylation in rat PC12 cells after 15 mins by Western blotting analysis relative to beta-actin level; assay type: cell-based; settings: PC-12
PC-12 [8] = experiment: Cytotoxicity against rat PC12 cells at 100 uM after 2 days by MTT assay; assay type: cell-based; settings: pc-12, 48 h
[9] = biological target: High affinity nerve growth factor receptor (Rattus norvegicus) (UniProt P35739); experiment: Inhibition of NGF-induced TrkA receptor phosphorylation in rat PC12 cells at 10 uM after 15 mins by ELISA relative to control; assay type: cell-based; settings: PC-12
PC-12 [10] = experiment: Inhibition of NGF-mediated neurite outgrowth in rat PC12 cells at 50 uM after 24 hrs by light microscopy (reference value: 21.06 +/- 1.27 %); assay type: functional; settings: PC-12, 24 h
PC-12 [11] = experiment: Inhibition of NGF-mediated neurite outgrowth in rat PC12 cells at 100 uM after 24 hrs by light microscopy (reference value: 21.06 +/- 1.27 %); assay type: functional; settings: PC-12, 24 h
[12] = biological target: High affinity nerve growth factor receptor (Rattus norvegicus) (UniProt P35739); experiment: Inhibition of NGF-induced TrkA receptor phosphorylation in rat PC12 cells at 1 uM after 15 mins by ELISA relative to control; assay type: cell-based; settings: PC-12
[13] = biological target: High affinity nerve growth factor receptor (Rattus norvegicus) (UniProt P35739); experiment: Inhibition of NGF-induced TrkA receptor phosphorylation in rat PC12 cells at 50 uM after 15 mins by ELISA relative to control; assay type: cell-based; settings: PC-12
PC-12 [14] = experiment: Increase of NGF-induced neuronal differentiation in rat PC12 cells up to 100 uM after 24 hrs by light microscopy; assay type: functional, cell-based
PC-12 [15] = experiment: Inhibition of NGF-mediated neurite outgrowth in rat PC12 cells at 10 uM after 24 hrs by light microscopy (reference value: 21.06 +/- 1.27 %); assay type: functional; settings: PC-12, 24 h
[16] = biological target: T1, Mitogen-activated protein kinase 1 and 3 (ERK2 and ERK1) (Rattus norvegicus); experiment: Inhibition of NGF-induced ERK1/2 phosphorylation in rat PC12 cells at 50 uM after 15 mins by Western blotting analysis relative to beta-actin level (reference value: 0.275 +/- 0.005); assay type: cell-based; settings: PC-12

Chain of High affinity nerve growth factor receptor (Rattus norvegicus) (P35739 whole entry): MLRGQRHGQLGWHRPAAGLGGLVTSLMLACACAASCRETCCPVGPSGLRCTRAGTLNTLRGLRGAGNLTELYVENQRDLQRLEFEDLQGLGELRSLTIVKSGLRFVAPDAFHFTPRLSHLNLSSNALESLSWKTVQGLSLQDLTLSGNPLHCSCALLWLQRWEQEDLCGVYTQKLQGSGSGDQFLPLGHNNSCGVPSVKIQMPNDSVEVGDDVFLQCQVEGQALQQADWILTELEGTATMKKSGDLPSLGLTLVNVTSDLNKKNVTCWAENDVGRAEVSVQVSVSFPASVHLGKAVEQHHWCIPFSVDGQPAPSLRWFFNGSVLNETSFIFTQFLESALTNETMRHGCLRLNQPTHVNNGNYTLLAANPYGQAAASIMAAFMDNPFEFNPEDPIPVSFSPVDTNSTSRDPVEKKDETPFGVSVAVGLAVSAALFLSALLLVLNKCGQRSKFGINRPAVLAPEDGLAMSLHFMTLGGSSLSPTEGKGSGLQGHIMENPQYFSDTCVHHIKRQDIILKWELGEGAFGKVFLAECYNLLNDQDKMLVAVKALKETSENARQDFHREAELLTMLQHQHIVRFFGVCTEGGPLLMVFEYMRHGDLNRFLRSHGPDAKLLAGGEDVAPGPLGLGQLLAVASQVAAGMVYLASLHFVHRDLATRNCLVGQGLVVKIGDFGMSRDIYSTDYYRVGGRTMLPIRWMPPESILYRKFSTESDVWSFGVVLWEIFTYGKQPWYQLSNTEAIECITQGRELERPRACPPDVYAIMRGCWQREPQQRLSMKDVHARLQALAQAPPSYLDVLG
T1 sequence (P21708 whole entry, looked up): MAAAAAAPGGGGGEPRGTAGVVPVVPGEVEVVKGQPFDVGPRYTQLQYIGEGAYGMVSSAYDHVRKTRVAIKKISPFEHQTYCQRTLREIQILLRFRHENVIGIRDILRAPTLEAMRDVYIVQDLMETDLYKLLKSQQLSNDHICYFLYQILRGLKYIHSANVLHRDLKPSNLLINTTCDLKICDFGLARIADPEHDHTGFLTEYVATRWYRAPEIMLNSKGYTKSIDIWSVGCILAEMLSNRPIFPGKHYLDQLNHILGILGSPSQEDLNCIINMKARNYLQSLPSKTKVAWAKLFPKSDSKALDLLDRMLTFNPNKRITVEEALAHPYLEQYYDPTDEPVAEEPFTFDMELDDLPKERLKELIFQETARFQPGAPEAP
T1 sequence (P63086 whole entry, looked up): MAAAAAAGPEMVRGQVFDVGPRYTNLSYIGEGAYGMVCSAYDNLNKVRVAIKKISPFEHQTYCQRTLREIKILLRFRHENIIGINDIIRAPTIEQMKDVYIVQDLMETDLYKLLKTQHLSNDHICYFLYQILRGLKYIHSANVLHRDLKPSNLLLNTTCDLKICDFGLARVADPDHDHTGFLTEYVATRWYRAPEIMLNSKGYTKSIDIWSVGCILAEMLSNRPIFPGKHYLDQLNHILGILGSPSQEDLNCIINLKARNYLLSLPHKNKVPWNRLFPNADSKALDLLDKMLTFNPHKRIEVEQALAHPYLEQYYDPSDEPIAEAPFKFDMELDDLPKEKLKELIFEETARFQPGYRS

For `CC(C)[C@@H](C)/C=C/[C@@H](C)[C@H]1CC[C@@H]2[C@]1(C)CC[C@H]1[C@]23C=C[C@]2(C[C@@H](O)CC[C@]12C)OO3`, which inhibition (PC-12 [1]) is on record?
Its inhibition is “inactive”.

For `CC(C)[C@@H](C)/C=C/[C@@H](C)[C@H]1CC[C@@H]2[C@]1(C)CC[C@H]1[C@]23C=C[C@]2(C[C@@H](O[C@@H]4O[C@H](CO)[C@@H](O)[C@H](O)[C@H]4O)CC[C@]12C)OO3`, which inhibition (PC-12 [1]) is on record?
The inhibition was “inactive”.

With `CC(C)[C@@H](C)/C=C/[C@@H](C)[C@H]1CC[C@H]2C3=CC(=O)[C@@]4(O)C[C@@H](O)CC[C@]4(C)[C@@]3(O)CC[C@]12C` as the compound, how does the inhibition (PC-12 [1]) read?
Its inhibition is “inactive”.

`CC(C)[C@@H](C)/C=C/[C@@H](C)[C@H]1CC[C@H]2C3=CC=C4C[C@@H](O)CC[C@]4(C)[C@H]3CC[C@]12C` was tested. Which inhibition (PC-12 [1]) did it give?
Its inhibition is “inactive”.

`CC(C)[C@@H](C)/C=C/[C@@H](C)[C@H]1CC[C@H]2C3=CC[C@H]4C[C@@H](O)CC[C@]4(C)[C@H]3CC[C@]12C` was tested. Which inhibition (PC-12 [1]) did it give?
Its inhibition is “inactive”.

With `CC(C)[C@@H](C)/C=C/[C@@H](C)[C@H]1CC[C@H]2C3=C[C@@H](O)[C@@]4(O)C[C@@H](O)CC[C@]4(C)[C@H]3CC[C@]12C` as the compound, how does the inhibition (PC-12 [1]) read?
The inhibition was “inactive”.

How did the inhibition (PC-12 [1]) turn out when `CC(C)[C@@H](C)/C=C/[C@@H](C)[C@H]1CC[C@H]2C3=C[C@@H](O)[C@@]4(O)C[C@@H](O[C@@H]5O[C@H](CO)[C@@H](O)[C@H](O)[C@H]5O)CC[C@]4(C)[C@H]3CC[C@]12C` was run?
The inhibition was “inactive”.

Which inhibition (PC-12 [1]) does the source give for `CCCCCCCCCCCCCCC[C@@H](O)C(=O)N[C@@H](CO[C@@H]1O[C@H](CO)[C@@H](O)[C@H](O)[C@H]1O)[C@H](O)/C=C/CC/C=C(\C)CCCCCCCCC` here?
The inhibition was “inactive”.

How did the inhibition (PC-12 [1]) turn out when `CO[C@@H]1C=C2[C@@H]3CC[C@H]([C@H](C)/C=C/[C@H](C)C(C)C)[C@@]3(C)CC[C@]2(O)[C@@]2(C)CC[C@H](O)C[C@]12O` was run?
Its inhibition is “inactive”.

Which inhibition (PC-12 [1]) does the source give for `C[C@H](CO)C1=C2C3=CC=C(C=O)C[C@H](O)[C@]3(C)CC[C@@]2(CO)CC1` here?
Its inhibition is “inactive”.

What does the source list for `C[C@H](CO)C1=C2[C@H]3CC=C(C=O)CC(=O)[C@]3(C)CC[C@@]2(C)CC1`?
inhibition (PC-12 [1]): Active; Activity (PC-12 [2]): Active

Which inhibition (PC-12 [1]) does the source give for `C[C@H](CO)[C@]12CC[C@]3(C)CC[C@@]4(C)C(=O)CC(C=O)=CC[C@@H]4[C@@]31O2` (relative stereo) [SCABRONINE M] here?
The inhibition was “Dose-dependent effect”.

What about the Activity (PC-12 [3]) of the same compound?
The Activity was 23.22%.

What about the Ratio [4] of the same compound?
The Ratio was 0.26.

What about the Ratio [5] of the same compound?
The Ratio was 0.24.

What about the inhibition [6] of the same compound?
The inhibition was “Dose-dependent effect”.

What about the inhibition [7] of the same compound?
Its inhibition is “Dose-dependent effect”.

What about the Activity (PC-12 [8]) of the same compound?
Its Activity is “Non-toxic”.

What about the fold change (FC) [9] of the same compound?
The fold change (FC) was 1.4.

And the neurite-bearing cells at 50 µM (PC-12 [10])?
The neurite-bearing cells at 50 µM was 1.6%.

What about the neurite-bearing cells at 100 µM (PC-12 [11]) of the same compound?
The neurite-bearing cells at 100 µM was 0.1%.

And the fold change (FC) [12]?
Its fold change (FC) is 1.61.

What about the fold change (FC) [13] of the same compound?
The fold change (FC) was 1.34.

What about the Activity (PC-12 [14]) of the same compound?
The Activity was “inactive”.

What about the neurite-bearing cells at 10 µM (PC-12 [15]) of the same compound?
The neurite-bearing cells at 10 µM was 9.15%.

And the Ratio [16]?
The Ratio was 0.21.
